For 28 compounds, fold induction and IC50 results are on record in patent EP4653437A2 (Innovo Therapeutics Inc., priority 2023, dated 2024).

In general, IC50 refers to the midpoint of a concentration-inhibition curve. A lower IC50 goes with higher potency.

For one test, the system named is A549 cells. The test can be described thus: Measurement of PGE2-increasing activity in A549 cells (IL-1β stimulated, PGE2 quantified in supernatant). In kind it is cell-based. The note with it: Homo sapiens, 24 h; concentration of 1 µM of each compound; IL-1β treated A549 cells; read-out: Increased PGE2 production in A549 cells. The procedure, abridged:
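PGE2 secreted into the supernatant was measured by immunoassay 24 h after treatment. Before treatment, A549 cells were cultured 24 h in 10% FBS F12K, washed, and placed in serum-free medium containing compound (DMSO 0.1% final) plus or minus IL-1β, incubated at 37 °C, 5% CO2.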

The target in the next test is T1, human 15-PGDH (Homo sapiens, UniProt P15428).
T1 construct: purchased R&D System 5660-DH
T1 sequence (P15428 1-266): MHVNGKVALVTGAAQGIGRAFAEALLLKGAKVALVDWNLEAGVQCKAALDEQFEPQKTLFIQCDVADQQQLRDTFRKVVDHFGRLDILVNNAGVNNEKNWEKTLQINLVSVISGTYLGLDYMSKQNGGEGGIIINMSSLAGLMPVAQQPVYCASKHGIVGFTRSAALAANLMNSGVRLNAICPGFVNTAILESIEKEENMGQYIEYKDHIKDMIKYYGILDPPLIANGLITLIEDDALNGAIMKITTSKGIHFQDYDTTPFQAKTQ
The experiment in a line: Evaluation of 15-PGDH inhibitory activity (fluorescence enzyme assay, NAD+/PGE2). The note with it: human 15-PGDH enzyme, fluorescence Vmax. It counts as biochemical. As for the experimental part:
15-PGDH inhibition activity of Example compounds was measured as follows. 6.7 ng of human 15-PGDH (R&D System# 5660-DH) enzyme (10 µL) was added to a black 96 well plate, 60 µL of buffer (50 mM Tris-HCl, pH 7.5, 0.01% Tween 20) was added, and 10 µL of 200 µM β-Nicotinamide adenine dinucleotide sodium salt (Sigma, Cat# N0632-5G) was added. 10 µL of (10x) compound solution in DMSO was added and reacted for 10 minutes at room temperature.

Turning to `N#Cc1ccc(-c2cccc3c(C(=O)N4CCCCC4)cnn23)cc1` [Example 15, 4-(3-(piperidine-1-carbonyl)pyrazolo[1,5-a]pyridin-7-yl)benzonitrile], the fold induction at 1 µM in the test on A549 cells is greater than 1.5. Also, the IC50 against human 15-PGDH is no more than 0.1 µM.

Turning to `Cc1nc(-c2ccc(-c3cccc4c(C(=O)N5CCCCC5)cnn34)c(F)c2)no1` [Example 296, [7-[2-fluoro-4-(5-methyl-1,2,4-oxadiazol-3-yl)phenyl]pyrazolo[1,5-a]pyridin-3-yl]-(1-piperidyl)methanone], the fold induction at 1 µM in the test with A549 cells is greater than 1.5. For the same compound, the IC50 on human 15-PGDH was no more than 0.1 µM.

For the compound `O=C(c1cnn2c(-c3ccc([N+](=O)[O-])cc3)cccc12)N1CCC(F)CC1` [Example 157, (4-fluoropiperidin-1-yl)(7-(4-nitrophenyl)pyrazolo[1,5-a]pyridin-3-yl)methanone], the fold induction at 1 µM in the test on A549 cells was greater than 1.5. The IC50 on human 15-PGDH is no more than 0.1 µM.

Turning to `O=C(c1cnn2c(-c3ccnc(N4CC(F)C4)c3)cccc12)N1CCCCC1` [Example 257, (7-(2-(3-fluoroazetidin-1-yl)pyridin-4-yl)pyrazolo[1,5-a]pyridin-3-yl)(piperidin-1-yl)methanone], the fold induction at 1 µM in the test on A549 cells was less than 1.5. Besides, the IC50 against human 15-PGDH was no more than 0.1 µM.

`O=C(c1cnn2c(-c3cccc(-c4nnn[nH]4)c3)cccc12)N1CCCCC1` [Example 113, (7-(3-(1H-tetrazol-5-yl)phenyl)pyrazolo[1,5-a]pyridin-3-yl)(piperidin-1-yl)methanone]: the fold induction at 1 µM in the test with A549 cells was greater than 1.5. The IC50 against human 15-PGDH was no more than 0.1 µM.

Turning to `O=C(c1cnn2c(-c3ccc(N4CCC5(CCC5)C4)nc3)cccc12)N1CCCCC1` [Example 223, (7-(6-(6-azaspiro[3.4]octan-6-yl)pyridin-3-yl)pyrazolo[1,5-a]pyridin-3-yl)(piperidin-1-yl)methanone], the fold induction at 1 µM with A549 cells was greater than 1.5. Moreover, the IC50 against human 15-PGDH is no more than 0.1 µM.

In the case of `Cn1cnc(Nc2cccc3c(C(=O)N4CCCCC4)cnn23)cc1=O` [Example 236, 3-methyl-6-[[3-(piperidine-1-carbonyl)pyrazolo[1,5-a]pyridin-7-yl]amino]pyrimidin-4-one], the fold induction at 1 µM with A549 cells was greater than 1.5. This compound also registered an IC50 at human 15-PGDH of no more than 0.1 µM.

Turning to `COCCNC(=O)c1ccc(-c2cccc3c(C(=O)N4CCCCC4)cnn23)cc1` [Example 62, N-(2-methoxyethyl)-4-(3-(piperidine-1-carbonyl)pyrazolo[1,5-a]pyridin-7-yl)benzamide], the fold induction at 1 µM with A549 cells was greater than 1.5. Besides, at human 15-PGDH, the IC50 is no more than 0.1 µM.

Consider `CN(C)C(=O)c1ccc(-c2cccc3c(C(=O)N4CCCCC4)cnn23)cc1` [Example 59, N,N-dimethyl-4-(3-(piperidine-1-carbonyl)pyrazolo[1,5-a]pyridin-7-yl)benzamide], for which, in the test on A549 cells, the fold induction at 1 µM was greater than 1.5. The compound further returned an IC50 at human 15-PGDH of no more than 0.1 µM.

With `COC(=O)C1CN(c2ccc(-c3cccc4c(C(=O)N5CCCCC5)cnn34)cn2)C1` [Example 219, methyl 1-(5-(3-(piperidine-1-carbonyl)pyrazolo[1,5-a]pyridin-7-yl)pyridin-2-yl)azetidine-3-carboxylate], in the test with A549 cells, the fold induction at 1 µM was greater than 1.5. The IC50 on human 15-PGDH was no more than 0.1 µM.

Turning to `O=C(c1cncc(-c2cccc3c(C(=O)N4CCCCC4)cnn23)c1)N1CCNCC1` [Example 48, piperazin-1-yl(5-(3-(piperidine-1-carbonyl)pyrazolo[1,5-a]pyridin-7-yl)pyridin-3-yl)methanone], in the test on A549 cells, the fold induction at 1 µM is less than 1.5. The compound also showed an IC50 at human 15-PGDH of no more than 0.1 µM.

For the compound `O=C(Nc1cccc(-c2cccc3c(C(=O)N4CCCCC4)cnn23)c1)C1CC1` [Example 94, N-(3-(3-(piperidine-1-carbonyl)pyrazolo[1,5-a]pyridin-7-yl)phenyl)cyclopropanecarboxamide], in the test on A549 cells, the fold induction at 1 µM is greater than 1.5. The IC50 at human 15-PGDH was no more than 0.1 µM.

Regarding `N#CCNC(=O)c1cncc(-c2cccc3c(C(=O)N4CCCCC4)cnn23)c1` [Example 52, N-(cyanomethyl)-5-(3-(piperidine-1-carbonyl)pyrazolo[1,5-a]pyridin-7-yl)nicotinamide], in the test with A549 cells, the fold induction at 1 µM is greater than 1.5. This compound also came in with an IC50 against human 15-PGDH of no more than 0.1 µM.

As for `O=C(c1cnn2c(-c3cnc(-c4noc(=O)[nH]4)nc3)cccc12)N1CCCCC1` [Example 321, 3-[5-[3-(piperidine-1-carbonyl)pyrazolo[1,5-a]pyridin-7-yl]pyrimidin-2-yl]-4H-1,2,4-oxadiazol-5-one], in the test with A549 cells, the fold induction at 1 µM was greater than 1.5. The compound also yielded an IC50 against human 15-PGDH of no more than 0.1 µM.

Regarding `COC(=O)c1cccc(-c2cccc3c(C(=O)N4CCCCC4)cnn23)c1` [Example 3, methyl 3-(3-(piperidine-1-carbonyl)pyrazolo[1,5-a]pyridin-7-yl)benzoate], the fold induction at 1 µM with A549 cells is less than 1.5. This compound also registered an IC50 against human 15-PGDH of no more than 0.1 µM.

Turning to `O=C(c1cnn2c(-c3ccc(-n4cc([N+](=O)[O-])cn4)nc3)cccc12)N1CCCCC1` [Example 355, (7-(6-(4-nitro-1H-pyrazol-1-yl)pyridin-3-yl)pyrazolo[1,5-a]pyridin-3-yl)(piperidin-1-yl)methanone], in the test with A549 cells, the fold induction at 1 µM is greater than 1.5. This compound also registered a half-inhibitory concentration (IC50) against human 15-PGDH of no more than 0.1 µM.

With `O=C1NCc2ncc(-c3cccc4c(C(=O)N5CCCCC5)cnn34)cc21` [Example 232, 3-(3-(piperidine-1-carbonyl)pyrazolo[1,5-a]pyridin-7-yl)-6,7-dihydro-5H-pyrrolo[3,4-b]pyridin-5-one], the fold induction at 1 µM in the test on A549 cells was greater than 1.5. For the same compound, at human 15-PGDH, the IC50 is no more than 0.1 µM.

Regarding `O=C(c1cnn2c(-c3ccnc(Cl)c3)cccc12)N1CCCCC1` [Example 8, (7-(2-chloropyridin-4-yl)pyrazolo[1,5-a]pyridin-3-yl)(piperidin-1-yl)methanone], the fold induction at 1 µM in the test with A549 cells is greater than 1.5. For the same compound, on human 15-PGDH, the 50% inhibitory concentration (IC50) was no more than 0.1 µM.

`CN1CCC(C(=O)Nc2cccc(-c3cccc4c(C(=O)N5CCCCC5)cnn34)c2)CC1` [Example 93, 1-methyl-N-(3-(3-(piperidine-1-carbonyl)pyrazolo[1,5-a]pyridin-7-yl)phenyl)piperidine-4-carboxamide]: the fold induction at 1 µM in the test with A549 cells was greater than 1.5. Besides, at human 15-PGDH, the IC50 was no more than 0.1 µM.

`O=C1CN(C(=O)c2cncc(-c3cccc4c(C(=O)N5CCCCC5)cnn34)c2)CC(=O)N1` [Example 204, 4-[5-[3-(piperidine-1-carbonyl)pyrazolo[1,5-a]pyridin-7-yl]pyridine-3-carbonyl]piperazine-2,6-dione]: the fold induction at 1 µM with A549 cells is less than 1.5. Further, the IC50 against human 15-PGDH was no more than 0.1 µM.

In the case of `O=C(Cc1cncc(F)c1)Nc1cncc(-c2cccc3c(C(=O)N4CCCCC4)cnn23)c1` [Example 402, 2-(5-fluoropyridin-3-yl)-N-(5-(3-(piperidine-1-carbonyl)pyrazolo[1,5-a]pyridin-7-yl)pyridin-3-yl)acetamide], the fold induction at 1 µM in the test on A549 cells is greater than 1.5. The same compound had an IC50 against human 15-PGDH of no more than 0.1 µM.

For the compound `Cc1nc(-c2cc(F)cc(-c3cccc4c(C(=O)N5CCCCC5)cnn34)c2)no1` [Example 322, (7-(3-fluoro-5-(5-methyl-1,2,4-oxadiazol-3-yl)phenyl)pyrazolo[1,5-a]pyridin-3-yl)(piperidin-1-yl)methanone], in the test with A549 cells, the fold induction at 1 µM is greater than 1.5. The compound also yielded an IC50 against human 15-PGDH of no more than 0.1 µM.

As for `NC(=O)c1ncc(-c2ccc(-c3cccc4c(C(=O)N5CCCCC5)cnn34)cc2)cn1` [Example 307, 5-[4-[3-(piperidine-1-carbonyl)pyrazolo[1,5-a]pyridin-7-yl]phenyl]pyrimidine-2-carboxamide], the fold induction at 1 µM in the test with A549 cells is greater than 1.5. Further, the half-maximal inhibitory concentration (IC50) against human 15-PGDH is no more than 0.1 µM.

With `O=C(c1cncc(-c2cccc3c(C(=O)N4CCCCC4)cnn23)c1)N1CC(=NO)C1` [Example 230, (3-hydroxyiminoazetidin-1-yl)-[5-[3-(piperidine-1-carbonyl)pyrazolo[1,5-a]pyridin-7-yl]-3-pyridyl]methanone], the fold induction at 1 µM in the test on A549 cells is greater than 1.5. At human 15-PGDH, this compound gave an IC50 of no more than 0.1 µM.

For the compound `N#CCCNC(=O)c1ccc(-c2cccc3c(C(=O)N4CCCCC4)cnn23)cn1` [Example 85, N-(2-cyanoethyl)-5-(3-(piperidine-1-carbonyl)pyrazolo[1,5-a]pyridin-7-yl)picolinamide], the fold induction at 1 µM with A549 cells is greater than 1.5. This compound showed an IC50 on human 15-PGDH of no more than 0.1 µM.

Turning to `O=C(c1cnn2c(-c3ccccc3)cccc12)N1CC2CCC1CC2` [Example 228, (2-azabicyclo[2.2.2]octan-2-yl)(7-phenylpyrazolo[1,5-a]pyridin-3-yl)methanone], the fold induction at 1 µM in the test with A549 cells is less than 1.5. Moreover, on human 15-PGDH, the IC50 is no more than 0.1 µM.

`O=C(c1cnn2c(-c3cnc4ccccc4c3)cccc12)N1CCCCC1` [Example 130, piperidin-1-yl(7-(quinolin-3-yl)pyrazolo[1,5-a]pyridin-3-yl)methanone]: the fold induction at 1 µM in the test with A549 cells is greater than 1.5. The compound further registered an IC50 on human 15-PGDH of no more than 0.1 µM.

Regarding `Nc1cnn(-c2ccc(-c3cccc4c(C(=O)N5CCCCC5)cnn34)cn2)c1` [Example 344, (7-(6-(4-amino-1H-pyrazol-1-yl)pyridin-3-yl)pyrazolo[1,5-a]pyridin-3-yl)(piperidin-1-yl)methanone], the fold induction at 1 µM in the test on A549 cells is greater than 1.5. The compound also had an IC50 against human 15-PGDH of no more than 0.1 µM.
